Source: patent US5597595A, “Low pH beverage fortified with calcium and vitamin D” (Abbott Laboratories, priority 1995, dated 1997)
Structures can show the parent of a compound that is named as a salt. Where two headings read alike, the source gives them in different places. One block for each compound: values may come before it.

Key:
[1] = rats fed three weeks, right femur calcium; cited from earlier work
[2] = without aluminum-containing drugs; normally functioning kidneys; cited from earlier work
[3] = Aluminum content of calcium sources; settings: analysis of commercially available compounds
Description: ^1 Values determined by analysis of commercially available compounds.

[4] = Recovery of vitamin D3 at 0-time; assay type: physicochemical
Description: The low pH beverage, the vitamin D3 emulsion and the powder beverage are saponified with methanolic potassium hydroxide to destroy the fat and release the vitamin D3 for extraction. The saponified samples are extracted with an ether/pentane mixture and the extracts are evaporated to dryness using nitrogen and reconstituted with iso-octane. Sample extracts are eluted on a cleanup HPLC column (cyanopropyl bonded silica), and column switching is used to transfer a "slice" of the eluant containing vitamin D3 onto an additional HPLC analytical column (aminopropyl bonded silica) for final quantitation. The vitamin D3 peak in the sample is quantitated using a linear regression external standard curve.
To compare the initial processing loss and stability of vitamin D3 of each variable with successive batches, two criteria were routinely measured: (1) % recovery of vitamin D3 at 0-time; and (2) half life of vitamin D3 (t1/2).
The % recovery of vitamin D3 of each batch was calculated by dividing the 0-time vitamin D3 result by the theoretical fortification of each batch times 100%. […] As used herein "theoretical fortification" refers to amount of vitamin D3 added to the product. As used herein "0-time" refers to the time of initial vitamin D3 analysis of the product. […]

[5] = Procedure: In this evaluation solubility was determined by a visual examination.
[6] = in orange juice and apple juice; cited from earlier work
[7] = system: aciduric and acidophilic organisms like certain varieties of yeasts and molds; settings: pH reduced from 4.5 to 3.0; cited from earlier work
[8] = Acid-base and calcium binding constants of glycerophosphate; assay type: physicochemical; settings: Henderson-Hasselbalch equation; listed as GP
Description: GaGP binds calcium with an approximate formation constant of 1.7. CaGP, when dissolved in water, dissociates readily to provide "free" calcium ions and protonated glycerophosphate species. […] On the other hand, anions, such as malate, tartrate, propionate or succinate, do provide buffer capacity at pH=3.6, and accordingly require more base or acid than GP for final adjustment of pH.

[9] = weak acid; cited from earlier work
[10] = Titratable acidity of calcium sources; assay type: physicochemical; settings: with the exception of calcium chloride
Description: Acidity is desired in the liquid nutritional product of the present invention for several reasons such as: to maintain the calcium salt solubility, to complement flavor, to control microbial growth, and to enhance the role of preservatives, specifically potassium benzoate or sodium benzoate. On the other hand, too much acidity can result in increased tartness and sourness that make the product undesirable from a sensory point of view. […] Titratable acidity is an indication of the total acidity of a beverage.

[11] = low birth weight infants; cited from earlier work
[12] = piglets; cited from earlier work
[13] = 600-800 IU/day; elderly, homebound or institutionalized individuals; cited from earlier work

Compound: O=C(O)CC(O)(CC(=O)O)C(=O)O [Calcium Citrate, calcium citrate]
relative calcium bioavailability as compared to a control [1]: 110%
risk of aluminum toxicity [2]: does not pose a risk of aluminum toxicity

Compound: [Ca+2].[OH-].[OH-] [Calcium Hydroxide]
Aluminum Content [3]: 300-400 parts per million (ppm)

vitamin D3 recovery, in words [4]: did not affect vitamin D3 recovery
Compound: N[C@@H](CS)C(=O)O [Cysteine]

solubility at 1 month, pH 5.0 [5]: partially Soluble
Compound: O=C(O)[C@H](O)[C@@H](O)[C@H](O)[C@H](O)CO [D-Gluconic-Acid, D-gluconic acid (hemicalcium salt)]

Compound: O=C(CO)[C@@H](O)[C@H](O)[C@H](O)CO [Fructose]
calcium bioavailability from CCM [6]: promoted positive calcium bioavailability

Compound: O=P([O-])([O-])[O-].O=P([O-])([O-])[O-].[Ca+2].[Ca+2].[Ca+2] [Tricalcium Phosphate, tricalcium phosphate]
relative calcium bioavailability as compared to a control [1]: 110%

Compound: O=C(O)c1ccccc1 [benzoic acid]
preservative effect on reducing pH [7]: increased by nearly three times

Compound: O=P(O)(O)OCC(O)CO (centres unmarked) [glycerophosphate]
effective acid-base buffering pH range / buffering capacity [8]: insignificant buffering capacity at pH=3.6
pKf [9]: 6.1

titratable acidity, in words [10]: lowest titratable acidity
Compound: Calcium Glycerophosphate [CaGP]
effectiveness as a source of calcium in TPN solutions [11]: as effective as calcium gluconate
effectiveness as a source of calcium in TPN solutions [12]: as effective as calcium gluconate

Compound: vitamin D
effect on calcium balance and fracture risk [13]: improve calcium balance and reduce fracture risk
